Here are results for eight compounds from article PMC3251925 (Bioorganic & medicinal chemistry, 2011).

The target in data set [1] is T1, Edema Factor (EF) (Bacillus anthracis, UniProt P40136). The data set is described as follows: cell-based. Type of data set: cell-based.
The test system of another data set is RAW 264.7 cells. The following applies: added alone, at the highest dose tested.
Data set [2] has as its system enterotoxigenic E.coli (ETEC). In kind it is in vivo. The following applies: assuming 5 ml serum/mouse.
Data set [3] has as its system human GADD45α gene-GFP reporter in TK6 cells (GenM-T01, GenM-C01).
The target in data set [4] is T1, Edema Factor (EF). Particulars: read-out: IC50, inhibition of cAMP production induced by edema toxin; cited from earlier work. On the technique in general: cAMP levels reflect the balance of adenylyl cyclase and phosphodiesterase activity.
Data set [5] has as its system enterotoxigenic E.coli (ETEC). Particulars: cited from earlier work.
In the next data set the test system is cholera toxin. Particulars: cited from earlier work.
The conditions of data set [6]: in vivo; cited from earlier work.

Where two headings read alike, the source gives them in different places.

T1 sequence (P40136 whole entry, looked up): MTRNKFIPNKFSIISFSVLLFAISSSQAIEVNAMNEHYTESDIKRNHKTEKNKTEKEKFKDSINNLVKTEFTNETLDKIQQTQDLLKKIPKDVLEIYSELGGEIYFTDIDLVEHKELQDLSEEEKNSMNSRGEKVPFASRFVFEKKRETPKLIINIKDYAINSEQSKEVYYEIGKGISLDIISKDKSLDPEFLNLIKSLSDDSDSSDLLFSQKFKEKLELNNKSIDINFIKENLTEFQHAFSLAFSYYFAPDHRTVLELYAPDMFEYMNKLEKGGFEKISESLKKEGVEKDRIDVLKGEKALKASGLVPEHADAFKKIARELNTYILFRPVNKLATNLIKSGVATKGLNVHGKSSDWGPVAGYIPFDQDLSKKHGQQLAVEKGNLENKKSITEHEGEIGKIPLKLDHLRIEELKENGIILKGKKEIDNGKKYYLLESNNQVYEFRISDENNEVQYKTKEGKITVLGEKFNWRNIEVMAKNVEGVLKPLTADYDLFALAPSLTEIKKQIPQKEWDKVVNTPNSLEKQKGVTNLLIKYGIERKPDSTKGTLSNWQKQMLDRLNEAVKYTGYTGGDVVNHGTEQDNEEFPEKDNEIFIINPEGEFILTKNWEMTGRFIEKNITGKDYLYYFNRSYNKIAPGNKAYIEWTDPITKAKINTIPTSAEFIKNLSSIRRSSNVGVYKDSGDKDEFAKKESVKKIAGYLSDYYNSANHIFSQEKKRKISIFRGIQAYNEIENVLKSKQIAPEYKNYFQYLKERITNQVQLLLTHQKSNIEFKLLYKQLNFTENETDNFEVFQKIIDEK

In the case of `Nc1ccc(NC(=O)c2cccc3c2C(=O)c2ccccc2-3)c(C(=O)O)c1` [Compound 6, 5-Amino-2-(9-oxo-9H-fluorene-1-carboxamido)benzoic acid], the “EF inhibitory activity, in words” value at Edema Factor (EF) [1] is “inactive”.

`CN(C)c1cccc(NC(=O)c2cccc3c2C(=O)c2ccccc2-3)c1` [Compound 19, N-(3-(dimethylamino)phenyl)-9-oxo-9H-fluorene-1-carboxamide]: the “Obvious toxicity to cultured cells” value with RAW 264.7 cells was “neither caused obvious toxicity”.

What is called IC50 is the concentration that gives 50% inhibition. As for “3-[(Biphenyl-3-carbonyl)-amino]-benzoic acid [Compound 2]”, the IC50 at Edema Factor (EF) [1] (read-out: IC50 (μM) Assay 1) is 19 µM.

Consider `O=C(O)c1cc(NC(=O)c2cccc3c2C(=O)c2ccccc2-3)ccc1O` [Compound 9, 2-Hydroxy-5-(9-oxo-9H-fluorene-1-carboxamido)benzoic acid], for which the “EF inhibitory activity, in words” value at Edema Factor (EF) [1] was “inactive”.

For `O=C(Nc1ccccc1)c1cccc2c1C(=O)c1ccccc1-2` [Compound 4, 9-oxo-N-phenyl-9H-fluorene-1-carboxamide], the “EF inhibitory activity, in words” value on Edema Factor (EF) [1] was “relatively inactive”.

In the case of `COC(=O)c1cc(NC(=O)c2cccc3c2C(=O)c2ccccc2-3)ccc1O` [Compound 14, Methyl 2-hydroxy-5-(9-oxo-9H-fluorene-1-carboxamido)benzoate], on Edema Factor (EF) [1], the “EF inhibitory activity, in words” value was “completely inactive” and the midpoint of inhibition, the IC50, lay at 249 µM.

Turning to `O=C(O)c1cccc(NC(=O)c2cccc3c2C(=O)c2ccccc2-3)c1` [Compound 1, 3-(9-oxo-9H-fluorene-1-carboxamido)benzoic acid], the IC50 against Edema Factor (EF) [1] is 1.64 to 12.3 µM. Further, in data set [2], the “Active dose in mice expressed as concentration” value is “about 3 μg/ml”. In addition, in the data set with tester strain TAMix, the Mutagenicity result is “non-mutagenic” and the Number of revertants result is listed as “doubling”. Besides, in data set [3], the “Concentration determined to be cytotoxic” value was found to be 62.5 µg/mL and the “Concentration with genotoxic activity (positive response)” value is 62.5 µg/mL. In addition, in the data set on RAW 264.7 cells, the “Obvious toxicity to cultured cells” value is “no obvious toxic effect”. For the same compound, the half-inhibitory concentration (IC50) at Edema Factor (EF) [4] was 2 to 9 µM. In data set [5] (intraperitoneally or by gavage, per mouse), the “Effective dose to reduce diarrhea in mice (from ETEC)” value was 7.5 to 15 µg. The “Diarrhea caused by ETEC” value in [5] (mouse, oral gavage dose of 15 μg/mouse) was “reduced diarrhea”. Besides, the “Levels of bacteria in the colons of infected and treated mice” value in data set [5] (versus mice that did not receive the compound) was “much lower”. Besides, the “Inhibition of cholera toxin” value in the data set on cholera toxin is “inhibits cholera toxin”. Moreover, the “Obvious toxic effect in mouse studies” value in [6] is listed as “no obvious toxic effect”.

Regarding `Nc1cc(NC(=O)c2cccc3c2C(=O)c2ccccc2-3)cc(C(=O)O)c1` [Compound 10, 3-amino-5-(9-oxo-9H-fluorene-1-carboxamido)benzoic acid], on Edema Factor (EF) [1], the half-inhibitory concentration (IC50) came out at 1.3 µM. Also, in the data set with RAW 264.7 cells, the “Obvious toxicity to cultured cells” value is recorded as “neither caused obvious toxicity”.
